In paper PMC9270351, “Conjugates of urolithin A with NSAIDs, their stability, cytotoxicity, and anti-inflammatory potential” (Scientific Reports, 2022):
Values belong to the molecule of their own block, whether it stands above or below them.

Key:
[1] = test system: THP-1 derived macrophages; assay: MTT assay, cell viability; format: cell-based, human; conditions: tested concentration range 2–50 µM; 1 h treatment, then LPS for 3 or 24 h
Experimental: THP-1 human monocytic cells (DSMZ, Braunschweig, Germany) were studied between passages 4 and 19. Monocytes were differentiated into THP-1 derived macrophages according to modified, previously described protocol. THP-1 monocytes were seeded in 24-well plates at a density of 400,000 cells per well. Cells were incubated at 37 °C under humidified 5% CO2 in the culture medium containing RPMI 1640 without phenol red supplemented with 10% FBS and 2 mM glutamine. In order to differentiate THP-1 monocytes into macrophages, cells were treated with 25 ng/mL PMA followed by 48 h incubation, medium change and an additional 24 h resting. Selected UADs were added to THP-1 derived macrophages at concentrations 2–50 µM and left for 1-h resting. Next, cells were treated with 10 ng/ml LPS. […]
THP-1 monocytes were seeded in 24-well plates at a density of 400,000 cells per well and differentiated into THP-1 derived macrophages according to the method described above. […] After medium removal, crystals were dissolved in 400 µL DMSO, 200 µL of solution was transferred to 96-well plate and the absorbance of the solution was measured at λ = 570 nm with the correction to 630 nm using a microplate reader. […]

THP-1 monocytes = assay: PI flow cytometric assay, cell viability; format: cell-based, human; conditions: 24-h incubation
Experimental: THP-1 monocytes were seeded in 24-well plates at a density of 400,000. Selected UADs (2–50 µM), control (0.25% DMSO in PBS), UA (50 µM) and parthenolide (25 µM) as a control were added to THP-1 monocytes and left for 24-h incubation at 37 °C under humidified 5% CO2 in the culture medium containing RPMI 1640 without phenol red supplemented with 10% FBS and 2 mM glutamine. After that time, cell suspensions were transferred to Eppendorf tubes, centrifuged, stained with propidium iodide (PI) and analyzed using FACS (MACSQuant® Analyze, Miltenyi Biotec, Bergisch Gladbach, Germany). The cell viability was reported as the percentage of PI(−) cells.

[2] = test system: TNF-α secretion in LPS-stimulated THP-1 derived macrophages; assay: TNF-α secretion of LPS-stimulated macrophages (ELISA); format: cell-based, human; conditions: over tested concentrations; 1 h treatment, then LPS 3 h
Experimental: (§1) THP-1 human monocytic cells (DSMZ, Braunschweig, Germany) were studied between passages 4 and 19. Monocytes were differentiated into THP-1 derived macrophages according to modified, previously described protocol. THP-1 monocytes were seeded in 24-well plates at a density of 400,000 cells per well. Cells were incubated at 37 °C under humidified 5% CO2 in the culture medium containing RPMI 1640 without phenol red supplemented with 10% FBS and 2 mM glutamine. In order to differentiate THP-1 monocytes into macrophages, cells were treated with 25 ng/mL PMA followed by 48 h incubation, medium change and an additional 24 h resting. Selected UADs were added to THP-1 derived macrophages at concentrations 2–50 µM and left for 1-h resting. Next, cells were treated with 10 ng/ml LPS. Successful differentiation was confirmed by the presence of distinguishing macrophage markers such as: cell adherence, changes in morphology and response to bacterial LPS stimulation and, consequently, TNF-α secretion.
(§2) After treatment with the test compounds for 1 h and subsequent stimulation with LPS for 3 h (for TNF-α secretion measurements) or 24 h (for IL-10 and IL-6 secretion measurements) supernatants were collected. The secretion of cytokines levels was measured by ELISA kits according to the manufacturer’s instruction (Human TNF-α, Human IL-10 and Human IL-6 ELISA kits, BD Biosciences, Franklin Lakes, NJ, USA). […]

[3] = test system: IL-10 secretion in LPS-stimulated THP-1 derived macrophages; assay: IL-10 secretion of LPS-stimulated macrophages (ELISA); format: cell-based, human; conditions: over tested concentrations; 1 h treatment, then LPS 24 h
Experimental: as §1, §2

[4] = test system: IL-6 secretion in LPS-stimulated THP-1 derived macrophages; assay: IL-6 secretion of LPS-stimulated macrophages (ELISA); format: cell-based, human; conditions: 1 h treatment, then LPS 24 h
Experimental: as §1, §2

melting point: 114.4 to 115.7 °C
Structure (SMILES): COc1ccc2c(c1)c(=O)oc1cc(OC(=O)C(C)c3ccc(CC(C)C)cc3)ccc12 (stereo not shown) [Mix 7, 8-methoxy-6-oxo-6H-benzo[c]chromen-3-yl 2-(4-isobutylphenyl)propanoate]

melting point: 186.7 to 189.2 °C
Structure (SMILES): COc1ccc2c(c1)c(=O)oc1cc(OC(=O)c3ccccc3Nc3cccc(C)c3C)ccc12 [Mix 8, 8-methoxy-6-oxo-6H-benzo[c]chromen-3-yl 2-((2,3-dimethylphenyl)amino)benzoate]

melting point: 207.3 to 208.5 °C
Structure (SMILES): COc1ccc2c(c1)c(=O)oc1cc(OC(=O)Cc3ccccc3Nc3c(Cl)cccc3Cl)ccc12 [Mix 9, 8-methoxy-6-oxo-6H-benzo[c]chromen-3-yl 2-(2-((2,6-dichlorophenyl)amino)phenyl)acetate]

Structure (SMILES): COc1ccc2c(c1)c(=O)oc1cc(OC(=O)c3ccccc3OC(C)=O)ccc12 [Mix 10, 8-methoxy-6-oxo-6H-benzo[c]chromen-3-yl 2-acetoxybenzoate]
melting point: 192.6 to 193.5 °C

Structure (SMILES): O=c1oc2cc(O)ccc2c2ccc(O)cc12 [UA, 3,8-dihydroxy-6H-benzo[c]chromen-6-one]
Cell viability / cytotoxic effect (MTT) [1]: no cytotoxic effect was observed
Cell viability (PI-stained cells, flow cytometry) (THP-1 monocytes; 50 µM): Slight, yet statistically significant decline in monocytes viability
Effect on TNF-α secretion [2]: inhibitory effect on TNF-α secretion in a dose-dependent manner
Effect on IL-10 secretion [3]: did not significantly affect IL-10 secretion
Effect on IL-6 secretion ([4]; 50 µM): inhibited secretion of IL-6

Structure (SMILES): Cc1cccc(Nc2ccccc2C(=O)O)c1C [mefenamic acid]
Effect on TNF-α secretion [2]: stimulating effect
Effect on IL-10 secretion [3]: did not influence IL-10 secretion
Effect on IL-6 secretion ([4]; over tested concentrations): increased IL-6 production in a dose-dependent manner

Structure (SMILES): C=C1C(=O)O[C@H]2[C@H]1CC/C(C)=C/CC[C@@]1(C)O[C@@H]21 [parthenolide]
Cell viability (PI-stained cells, flow cytometry) (THP-1 monocytes; 25 µM, positive control): decreased THP-1 viability
